Results published in US20240246964A1 (Arbutus Biopharma Corporation, priority 2021, published 2024).

Key:
[1] = biological target: PD-L1 His protein / PD-1 Fc protein (Homo sapiens (Human), UniProt Q9NZQ7); test: HTRF Assay (PD-1/PD-L1 interaction); assay type: binding; settings: PD-L1 His 6 nM, PD-1 Fc 6 nM
human PD-L1 = human PD-L1 (Homo sapiens (Human), UniProt Q9NZQ7); test: T cell activation luciferase reporter cell culture system (T Cell Activation Assay); assay type: cell-based; settings: luciferase reporter assay; PD-L1 aAPC/CHO-K1 cells with PD-1 effector Jurkat T cells
Chain of human PD-L1 (Q9NZQ7 19-290): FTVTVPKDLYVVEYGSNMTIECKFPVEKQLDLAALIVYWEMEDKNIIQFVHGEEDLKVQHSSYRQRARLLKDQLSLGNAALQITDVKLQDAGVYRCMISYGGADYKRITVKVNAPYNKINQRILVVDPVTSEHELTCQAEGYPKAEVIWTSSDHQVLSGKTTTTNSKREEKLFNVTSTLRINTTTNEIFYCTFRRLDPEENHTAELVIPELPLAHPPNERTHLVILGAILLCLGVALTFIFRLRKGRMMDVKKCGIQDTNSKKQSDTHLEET

Chain of PD-L1 His protein / PD-1 Fc protein (Q9NZQ7 19-238): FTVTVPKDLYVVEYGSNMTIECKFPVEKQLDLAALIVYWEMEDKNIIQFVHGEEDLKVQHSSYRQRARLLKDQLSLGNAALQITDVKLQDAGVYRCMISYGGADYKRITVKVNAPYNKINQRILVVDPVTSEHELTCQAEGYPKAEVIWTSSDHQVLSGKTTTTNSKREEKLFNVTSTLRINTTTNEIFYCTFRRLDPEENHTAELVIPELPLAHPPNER

COc1nc(-c2cccc(-c3ccnc(-c4cc(OC)c5nc(CNC6CC7(COC7)C6)cn5c4)c3Cl)c2Cl)ccc1CNC[C@@H]1CCC(=O)N1 [Example 321, (S)-5-((((6-(3-(2-(2-(((2-Oxaspiro[3.3]heptan-6-yl)amino)methyl)-8-methoxyimidazo[1,2-a]pyridin-6-yl)-3-chloropyridin-4-yl)-2-chlorophenyl)-2-methoxypyridin-3-yl)methyl)amino)methyl)pyrrolidin-2-one]
IC50 [1]: 0.847 nM | EC50 (human PD-L1): 64.7 nM

COc1cc(-c2nccc(-c3cccc(-c4ccc(CN5CCC(NC(C)=O)CC5)c(OC)n4)c3Cl)c2Cl)ccc1CN1CCC(NC(C)=O)CC1 [Example 322, N-(1-((6-(3-(2-(4-((4-Acetamidopiperidin-1-yl)methyl)-3-methoxyphenyl)-3-chloropyridin-4-yl)-2-chlorophenyl)-2-methoxypyridin-3-yl)methyl)piperidin-4-yl)acetamide]
IC50 [1]: 23.1 nM | EC50 (human PD-L1): 72.9 nM

COc1cc(-c2nccc(-c3cccc(-c4ccc(CNC5CCN(C(C)=O)CC5)c(OC)n4)c3Cl)c2Cl)ccc1CN1CCC(NC(C)=O)CC1 [Example 325, N-(1-(4-(4-(3-(5-(((1-Acetylpiperidin-4-yl)amino)methyl)-6-methoxypyridin-2-yl)-2-chlorophenyl)-3-chloropyridin-2-yl)-2-methoxybenzyl)piperidin-4-yl)acetamide]
IC50 [1]: 2.76 nM | EC50 (human PD-L1): 39.5 nM

COc1cc(-c2nccc(-c3cccc(-c4ccc(CNC5CCN(C(C)C)CC5)c(OC)n4)c3Cl)c2Cl)ccc1CNC1CCN(C(C)C)CC1 [Example 326, N-((6-(2-Chloro-3-(3-chloro-2-(4-(((1-isopropylpiperidin-4-yl)amino)methyl)-3-methoxyphenyl)pyridin-4-yl)phenyl)-2-methoxypyridin-3-yl)methyl)-1-isopropylpiperidin-4-amine]
IC50 [1]: 4.23 nM | EC50 (human PD-L1): 43 nM

COc1cc(-c2nccc(-c3cccc(-c4ccc(CNC5CCC(F)(F)CC5)c(OC)n4)c3Cl)c2Cl)ccc1CNC1CCC(F)(F)CC1 [Example 327, N-((6-(2-Chloro-3-(3-chloro-2-(4-(((4,4-difluorocyclohexyl)amino)methyl)-3-methoxyphenyl)pyridin-4-yl)phenyl)-2-methoxypyridin-3-yl)methyl)-4,4-difluorocyclohexan-1-amine]
IC50 [1]: 1.7 nM | EC50 (human PD-L1): 178 nM

COc1cc(-c2nccc(-c3cccc(-c4ccc(CNC5CCN(CCO)CC5)c(OC)n4)c3Cl)c2Cl)ccc1CNC1CCN(CCO)CC1 [Example 328, 2-(4-(((6-(2-Chloro-3-(3-chloro-2-(4-(((1-(2-hydroxyethyl)piperidin-4-yl)amino)methyl)-3-methoxyphenyl)pyridin-4-yl)phenyl)-2-methoxypyridin-3-yl)methyl)amino)piperidin-1-yl)ethan-1-ol]
IC50 [1]: 1.52 nM | EC50 (human PD-L1): 28.1 nM

CCC(=O)N1CCC(NCc2ccc(-c3cccc(-c4ccnc(-c5cc(F)c(CNC6CCN(C(=O)CC)CC6)c(OC)c5)c4Cl)c3Cl)nc2OC)CC1 [Example 331, 1-(4-(((6-(2-Chloro-3-(3-chloro-2-(3-fluoro-5-methoxy-4-(((1-propionylpiperidin-4-yl)amino)methyl)phenyl)pyridin-4-yl)phenyl)-2-methoxypyridin-3-yl)methyl)amino)piperidin-1-yl)propan-1-one]
IC50 [1]: 23.6 nM | EC50 (human PD-L1): 17 nM

COc1cc(-c2nccc(-c3cccc(-c4ccc(CN5CC6(CNC(=O)C6)C5)c(OC)n4)c3Cl)c2Cl)ccc1CNC1CCN(C(C)=O)CC1 [Example 332, 2-((6-(3-(2-(4-(((1-acetylpiperidin-4-yl)amino)methyl)-3-methoxyphenyl)-3-chloropyridin-4-yl)-2-chlorophenyl)-2-methoxypyridin-3-yl)methyl)-2,6-diazaspiro[3.4]octan-7-one]
IC50 [1]: 1.8 nM | EC50 (human PD-L1): 12.4 nM

COc1cc(-c2nccc(-c3cccc(-c4ccc(CNC5CCN(C(C)=O)CC5)c(OC)n4)c3Cl)c2F)ccc1CNC1CCN(C(C)=O)CC1 [Example 337, 1-(4-(((6-(3-(2-(4-(((1-Acetylpiperidin-4-yl)amino)methyl)-3-methoxyphenyl)-3-fluoropyridin-4-yl)-2-chlorophenyl)-2-methoxypyridin-3-yl)methyl)amino)piperidin-1-yl)ethan-1-one]
IC50 [1]: 0.3 nM | EC50 (human PD-L1): 62 nM

COc1cc(-c2nccc(-c3cccc(-c4ccc(CNC5CCN(C(C)=O)CC5)c(OC)n4)c3Cl)c2Cl)ccc1CN[C@@H]1COC(=O)C1 [Example 338, (S)-4-((4-(4-(3-(5-(((1-Acetylpiperidin-4-yl)amino)methyl)-6-methoxypyridin-2-yl)-2-chlorophenyl)-3-chloropyridin-2-yl)-2-methoxybenzyl)amino)dihydrofuran-2(3H)-one]
IC50 [1]: 0.17 nM | EC50 (human PD-L1): 96.3 nM

COC(=O)C[C@@H](CO)NCc1ccc(-c2nccc(-c3cccc(-c4ccc(CNC5CCN(C(C)=O)CC5)c(OC)n4)c3Cl)c2Cl)cc1OC [Example 339, Methyl (S)-3-((4-(4-(3-(5-(((1-acetylpiperidin-4-yl)amino)methyl)-6-methoxypyridin-2-yl)-2-chlorophenyl)-3-chloropyridin-2-yl)-2-methoxybenzyl)amino)-4-hydroxybutanoate]
IC50 [1]: 0.12 nM | EC50 (human PD-L1): 97.6 nM

COc1cc(-c2nccc(-c3cccc(-c4ccc(CNC5CCN(C(C)=O)CC5)c(OC)n4)c3Cl)c2Cl)ccc1CN[C@H]1CCOC1=O [Example 340, (S)-3-((4-(4-(3-(5-(((1-Acetylpiperidin-4-yl)amino)methyl)-6-methoxypyridin-2-yl)-2-chlorophenyl)-3-chloropyridin-2-yl)-2-methoxybenzyl)amino)dihydrofuran-2(3H)-one]
IC50 [1]: 0.1 nM | EC50 (human PD-L1): 523 nM

COc1cc(-c2nccc(-c3cccc(-c4ccc(CN5CCC(NC(C)=O)CC5)c(OC)n4)c3Cl)c2Cl)ccc1CNC1CCN(C(C)=O)CC1 [Example 341, N-(1-((6-(3-(2-(4-(((1-acetylpiperidin-4-yl)amino)methyl)-3-methoxyphenyl)-3-chloropyridin-4-yl)-2-chlorophenyl)-2-methoxypyridin-3-yl)methyl)piperidin-4-yl)acetamide]
IC50 [1]: 1.14 nM | EC50 (human PD-L1): 22.6 nM

COc1cc(-c2nccc(-c3cccc(-c4ccc(CNC5CCN(C(C)=O)CC5)c(OC)n4)c3Cl)c2Cl)ccc1CN[C@H](CO)CC(=O)O [Example 342, (S)-3-((4-(4-(3-(5-(((1-Acetylpiperidin-4-yl)amino)methyl)-6-methoxypyridin-2-yl)-2-chlorophenyl)-3-chloropyridin-2-yl)-2-methoxybenzyl)amino)-4-hydroxybutanoic acid]
IC50 [1]: 0.08 nM | EC50 (human PD-L1): 339 nM

COc1cc(-c2nccc(-c3cccc(-c4ccc(CNC5CCN(C(C)=O)CC5)c(OC)n4)c3Cl)c2Cl)ccc1CN[C@@H](CCO)C(=O)O [Example 343, (4-(4-(3-(5-(((1-Acetylpiperidin-4-yl)amino)methyl)-6-methoxypyridin-2-yl)-2-chlorophenyl)-3-chloropyridin-2-yl)-2-methoxybenzyl)-L-homoserine]
IC50 [1]: 0.09 nM | EC50 (human PD-L1): 248 nM

CCC(=O)N1CCC(NCc2ccc(-c3nccc(-c4cccc(-c5ccc(CNC6CCN(C(=O)CC)CC6)c(OC)n5)c4Cl)c3Cl)cc2OC)CC1 [Example 344, 1-(4-(((6-(2-Chloro-3-(3-chloro-2-(3-methoxy-4-(((1-propionylpiperidin-4-yl)amino)methyl)phenyl)pyridin-4-yl)phenyl)-2-methoxypyridin-3-yl)methyl)amino)piperidin-1-yl)propan-1-one]
IC50 [1]: 6.41 nM | EC50 (human PD-L1): 14.9 nM

COc1cc(-c2nccc(-c3cccc(-c4ccc(CN5CCC6(CC5)CC(=O)N6)c(OC)n4)c3Cl)c2Cl)ccc1CN1CCC2(CC1)CC(=O)N2 [Example 353, 7-((6-(2-Chloro-3-(3-chloro-2-(3-methoxy-4-((2-oxo-1,7-diazaspiro[3.5]nonan-7-yl)methyl)phenyl)pyridin-4-yl)phenyl)-2-methoxypyridin-3-yl)methyl)-1,7-diazaspiro[3.5]nonan-2-one]
IC50 [1]: 0.16 nM | EC50 (human PD-L1): ≥ 10000 nM

COc1cc(-c2nccc(-c3cccc(-c4ccc(CN5CCC(NC(C)=O)CC5)c(OC)n4)c3Cl)c2Cl)ccc1CN1CC2(CNC(=O)C2)C1 [Example 355, N-(1-((6-(2-Chloro-3-(3-chloro-2-(3-methoxy-4-((7-oxo-2,6-diazaspiro[3.4]octan-2-yl)methyl)phenyl)pyridin-4-yl)phenyl)-2-methoxypyridin-3-yl)methyl)piperidin-4-yl)acetamide]
IC50 [1]: 1.27 nM | EC50 (human PD-L1): 28.7 nM

COc1cc(-c2nccc(-c3cccc(-c4ccc(CNCCCNC(C)=O)c(OC)n4)c3Cl)c2Cl)ccc1CNCCCNC(C)=O [Example 358, N-(3-(((6-(3-(2-(4-(((3-Acetamidopropyl)amino)methyl)-3-methoxyphenyl)-3-chloropyridin-4-yl)-2-chlorophenyl)-2-methoxypyridin-3-yl)methyl)amino)propyl) acetamide]
IC50 [1]: 0.12 nM | EC50 (human PD-L1): 64.4 nM

COc1cc(-c2nccc(-c3cccc(-c4ccc(CNC5CCN(C(C)=O)CC5)c(OC)n4)c3Cl)c2Cl)ccc1CN1CC2(COC2)C1 [Example 380, 1-(4-(((6-(3-(2-(4-((2-Oxa-6-azaspiro[3.3]heptan-6-yl)methyl)-3-methoxyphenyl)-3-chloropyridin-4-yl)-2-chlorophenyl)-2-methoxypyridin-3-yl)methyl)amino)piperidin-1-yl)ethan-1-one]
IC50 [1]: 1.43 nM | EC50 (human PD-L1): 20.5 nM

COc1cc(-c2nccc(-c3cccc(-c4ccc(CNC5CCN(C(C)=O)CC5)c(OC)n4)c3Cl)c2Cl)ccc1CNC1CC(C)(C)C1 [Example 381, 1-(4-(((6-(2-Chloro-3-(3-chloro-2-(4-(((3,3-dimethylcyclobutyl)amino)methyl)-3-methoxyphenyl)pyridin-4-yl)phenyl)-2-methoxypyridin-3-yl)methyl)amino)piperidin-1-yl)ethan-1-one]
IC50 [1]: 0.184 nM | EC50 (human PD-L1): 53.3 nM
